Key:
[1] = molecular target: KDR (phospho-KDR, VEGF165-stimulated HUVEC cells) (Homo sapiens (Human), UniProt P35968); assay: KDR autophosphorylation ELISA in HUVEC cells (Example G); type: cell-based; conditions: cellular activity; KDR autophosphorylation ELISA in HUVEC cells
Outline: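 HUVEC cells, serum-starved 24 h, were treated 1 h with an 8-point compound dilution (0.3% DMSO) and then stimulated with 100 ng/mL VEGF165 for 5 min. Phospho-KDR in lysates was quantified by sandwich ELISA against a phospho-KDR standard. IC50 from a 4-parameter logistic fit, normalised between stimulated DMSO and unstimulated controls.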

[2] = molecular target: Human MET (residues 956-1390) (Homo sapiens (Human), UniProt P08581); assay: Human Met kinase assay, HTRF KinEase (Example D-2); type: biochemical; conditions: protocol of Example D-2 (other compounds); read-out: c-Met IC50
Outline: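 HTRF KinEase assay on MET residues 956-1390 (0.1 ng/well) in buffer with 5 mM MgCl2, 1 mM DTT and 1 mM MnCl2, with biotinylated peptide substrate, ATP at Km, 10 compound concentrations and 3% DMSO final, run 40 min at room temperature. The […] signal was normalized to DMSO and to 1 μM reference compound, and IC50 came from a 4-parameter logistic fit.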

[3] = molecular target: Met (phospho-Met, HGF-stimulated PC-3 prostate cancer cells) (Homo sapiens (Human), UniProt P08581); assay: Met autophosphorylation ELISA in PC-3 cells (Example F); type: cell-based; conditions: cellular activity; Met autophosphorylation ELISA in PC-3 cells; read-out: c-Met IC50
Outline: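 Compounds were tested on HGF-stimulated PC-3 cells. After 24 h culture and 3 h serum starvation, cells got compound for 1 h and 100 ng/mL HGF for 10 min, and Met tyrosine phosphorylation was measured by ELISA.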

Chain of Met (phospho-Met, HGF-stimulated PC-3 prostate cancer cells) (P08581 25-1390): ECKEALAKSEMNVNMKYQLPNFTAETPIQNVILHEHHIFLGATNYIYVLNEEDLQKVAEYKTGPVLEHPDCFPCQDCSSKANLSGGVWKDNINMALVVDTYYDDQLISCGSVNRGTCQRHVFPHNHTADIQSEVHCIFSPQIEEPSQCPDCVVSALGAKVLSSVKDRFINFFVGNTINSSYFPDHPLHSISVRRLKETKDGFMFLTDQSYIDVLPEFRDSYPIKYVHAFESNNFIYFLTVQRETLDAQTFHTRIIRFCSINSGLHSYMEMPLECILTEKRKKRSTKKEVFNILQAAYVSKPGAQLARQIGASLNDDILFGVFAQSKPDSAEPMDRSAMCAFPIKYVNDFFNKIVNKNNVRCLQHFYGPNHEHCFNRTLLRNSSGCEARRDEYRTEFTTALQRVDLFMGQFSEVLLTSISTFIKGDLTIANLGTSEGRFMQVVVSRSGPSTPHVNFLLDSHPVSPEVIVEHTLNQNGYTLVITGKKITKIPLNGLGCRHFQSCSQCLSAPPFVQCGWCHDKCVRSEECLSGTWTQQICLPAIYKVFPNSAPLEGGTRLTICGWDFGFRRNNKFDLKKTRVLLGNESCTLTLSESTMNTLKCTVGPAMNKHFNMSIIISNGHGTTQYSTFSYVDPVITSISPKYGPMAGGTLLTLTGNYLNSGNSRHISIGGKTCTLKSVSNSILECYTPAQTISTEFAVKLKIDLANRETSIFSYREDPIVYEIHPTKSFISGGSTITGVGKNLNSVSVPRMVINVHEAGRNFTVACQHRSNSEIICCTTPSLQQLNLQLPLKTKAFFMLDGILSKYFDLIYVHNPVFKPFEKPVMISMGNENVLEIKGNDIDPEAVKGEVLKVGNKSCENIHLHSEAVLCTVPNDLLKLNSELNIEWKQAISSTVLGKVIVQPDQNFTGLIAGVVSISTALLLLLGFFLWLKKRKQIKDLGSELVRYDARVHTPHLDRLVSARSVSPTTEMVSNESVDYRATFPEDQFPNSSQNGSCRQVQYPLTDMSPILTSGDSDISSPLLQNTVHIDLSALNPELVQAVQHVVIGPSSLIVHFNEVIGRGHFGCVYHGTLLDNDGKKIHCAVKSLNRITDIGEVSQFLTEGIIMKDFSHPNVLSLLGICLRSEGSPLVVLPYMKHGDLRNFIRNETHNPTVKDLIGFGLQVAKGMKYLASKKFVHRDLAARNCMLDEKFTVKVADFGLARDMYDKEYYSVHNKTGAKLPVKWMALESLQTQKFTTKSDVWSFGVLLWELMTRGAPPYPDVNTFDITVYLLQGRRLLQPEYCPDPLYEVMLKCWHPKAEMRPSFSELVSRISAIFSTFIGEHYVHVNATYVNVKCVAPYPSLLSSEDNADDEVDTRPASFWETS
Chain of Human MET (residues 956-1390) (P08581 956-1390): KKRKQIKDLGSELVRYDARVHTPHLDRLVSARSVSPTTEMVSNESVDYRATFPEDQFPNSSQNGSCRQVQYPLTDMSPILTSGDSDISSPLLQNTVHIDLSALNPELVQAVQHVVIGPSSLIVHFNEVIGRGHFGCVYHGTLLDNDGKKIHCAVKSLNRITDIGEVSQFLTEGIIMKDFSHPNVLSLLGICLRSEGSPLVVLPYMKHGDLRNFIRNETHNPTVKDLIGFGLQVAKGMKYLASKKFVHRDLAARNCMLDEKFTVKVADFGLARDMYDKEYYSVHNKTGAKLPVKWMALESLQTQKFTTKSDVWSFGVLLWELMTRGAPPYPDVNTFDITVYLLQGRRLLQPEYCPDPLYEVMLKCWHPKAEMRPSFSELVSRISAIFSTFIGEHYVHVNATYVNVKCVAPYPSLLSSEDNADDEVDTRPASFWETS
Chain of KDR (phospho-KDR, VEGF165-stimulated HUVEC cells) (P35968 20-1356): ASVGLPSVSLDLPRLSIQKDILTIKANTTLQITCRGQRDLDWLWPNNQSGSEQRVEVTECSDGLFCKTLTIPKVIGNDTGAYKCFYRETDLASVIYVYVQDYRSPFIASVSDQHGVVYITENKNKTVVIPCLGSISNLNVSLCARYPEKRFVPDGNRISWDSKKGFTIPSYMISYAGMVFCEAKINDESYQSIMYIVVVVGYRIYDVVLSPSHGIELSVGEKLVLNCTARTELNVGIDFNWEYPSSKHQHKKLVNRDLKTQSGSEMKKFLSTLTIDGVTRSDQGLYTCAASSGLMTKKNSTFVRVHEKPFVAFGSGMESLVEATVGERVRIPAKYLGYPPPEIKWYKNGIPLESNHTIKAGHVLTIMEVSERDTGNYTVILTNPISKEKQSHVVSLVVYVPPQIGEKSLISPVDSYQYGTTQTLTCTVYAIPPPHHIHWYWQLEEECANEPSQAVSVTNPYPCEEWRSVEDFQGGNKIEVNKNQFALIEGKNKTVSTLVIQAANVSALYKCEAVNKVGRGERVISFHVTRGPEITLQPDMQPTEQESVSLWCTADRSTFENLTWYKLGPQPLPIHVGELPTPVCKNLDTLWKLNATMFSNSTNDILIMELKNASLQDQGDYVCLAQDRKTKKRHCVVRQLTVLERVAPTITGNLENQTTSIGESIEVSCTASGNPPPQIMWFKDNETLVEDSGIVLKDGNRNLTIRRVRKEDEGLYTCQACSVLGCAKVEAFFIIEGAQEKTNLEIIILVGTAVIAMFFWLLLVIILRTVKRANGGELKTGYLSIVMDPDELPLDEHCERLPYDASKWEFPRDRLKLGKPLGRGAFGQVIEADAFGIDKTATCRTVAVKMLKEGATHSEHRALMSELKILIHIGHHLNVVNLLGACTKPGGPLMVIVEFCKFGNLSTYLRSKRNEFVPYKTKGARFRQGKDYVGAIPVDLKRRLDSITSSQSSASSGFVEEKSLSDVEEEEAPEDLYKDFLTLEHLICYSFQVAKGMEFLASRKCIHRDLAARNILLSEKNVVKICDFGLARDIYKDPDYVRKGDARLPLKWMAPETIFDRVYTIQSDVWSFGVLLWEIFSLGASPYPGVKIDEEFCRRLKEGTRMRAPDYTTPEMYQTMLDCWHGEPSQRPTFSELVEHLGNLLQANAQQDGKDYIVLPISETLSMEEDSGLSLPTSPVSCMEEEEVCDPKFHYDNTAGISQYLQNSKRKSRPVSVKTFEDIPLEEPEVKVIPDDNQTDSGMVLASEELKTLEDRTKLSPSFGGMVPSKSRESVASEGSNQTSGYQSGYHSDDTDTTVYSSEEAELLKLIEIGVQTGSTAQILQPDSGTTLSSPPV

Row | IC50 [1] | IC50 [2] | IC50 [3] | SMILES
1 | < 100 nM | < 100 nM | < 100 nM | COc1ccc2nccc(Oc3ccc(NC(=O)c4c(C)nc(C)c(-c5ccc(F)cc5)c4O)cc3F)c2c1 [Compound 345, N-[3-fluoro-4-(6-methoxyquinolin-4-yl)oxyphenyl]-5-(4-fluorophenyl)-4-hydroxy-2,6-dimethylpyridine-3-carboxamide]
2 | < 100 nM | < 100 nM | < 100 nM | COc1ccc2nccc(Oc3ccc(NC(=O)c4ccc(C)n(-c5ccc(F)cc5)c4=O)cc3F)c2c1 [Compound 346, N-[3-fluoro-4-(6-methoxyquinolin-4-yl)oxyphenyl]-1-(4-fluorophenyl)-6-methyl-2-oxopyridine-3-carboxamide]
3 | < 100 nM | < 100 nM | < 100 nM | COc1ccc2nccc(Oc3ccc(NC(=O)c4cnc(C)c(-c5ccc(F)cc5)c4O)cc3F)c2c1 [Compound 347, N-[3-fluoro-4-(6-methoxyquinolin-4-yl)oxyphenyl]-5-(4-fluorophenyl)-4-hydroxy-6-methylpyridine-3-carboxamide]
4 | < 100 nM | < 100 nM | < 100 nM | COCCOc1ccc2nccc(Oc3ccc(NC(=O)c4ccc(C)n(-c5ccc(F)cc5)c4=O)cc3F)c2n1 [Compound 350, N-[3-fluoro-4-[[6-(2-methoxyethoxy)-1,5-naphthyridin-4-yl]oxy]phenyl]-1-(4-fluorophenyl)-6-methyl-2-oxopyridine-3-carboxamide]
5 | < 100 nM | < 100 nM | < 100 nM | Cc1ccc(C(=O)Nc2ccc(Oc3ccnc4ccc(OCCN5CCOCC5)nc34)c(F)c2)c(=O)n1-c1ccc(F)cc1 [Compound 351, N-[3-fluoro-4-[[6-(2-morpholin-4-ylethoxy)-1,5-naphthyridin-4-yl]oxy]phenyl]-1-(4-fluorophenyl)-6-methyl-2-oxopyridine-3-carboxamide]
6 | < 100 nM | < 100 nM | < 100 nM | Cc1ncc(C(=O)Nc2ccc(Oc3ccnc4ccc(OCCN5CCOCC5)nc34)c(F)c2)c(O)c1-c1ccc(F)cc1 [Compound 352, N-[3-fluoro-4-[[6-(2-morpholin-4-ylethoxy)-1,5-naphthyridin-4 yl]oxy]phenyl]-5-(4-fluorophenyl)-4-hydroxy-6-methylpyridine-3-carboxamide]
7 | < 100 nM | < 100 nM | < 100 nM | Cc1ccc(C(=O)Nc2ccc(Oc3ccnc4ccc(OCCN(C)C)nc34)c(F)c2)c(=O)n1-c1ccc(F)cc1 [Compound 353, N-[4-[[6-[2-(dimethylamino)ethoxy]-1,5-naphthyridin-4-yl]oxy]-3-fluorophenyl]-1-(4-fluorophenyl)-6-methyl-2-oxopyridine-3-carboxamide]
8 | < 100 nM | < 100 nM | < 100 nM | Cc1nc(C)c(-c2ccc(F)cc2)c(O)c1C(=O)Nc1ccc(Oc2ccnc3ccc(OCCN(C)C)nc23)c(F)c1 [Compound 354, N-[4-[[6-[2-(dimethylamino)ethoxy]-1,5-naphthyridin-4-yl]oxy]-3-fluorophenyl]-5-(4-fluorophenyl)-4-hydroxy-2,6-dimethylpyridine-3-carboxamide]
9 | < 100 nM | < 100 nM | < 100 nM | Cc1nc(C)c(-c2ccc(F)cc2)c(O)c1C(=O)Nc1ccc(Oc2ccnc3ccc(OCCN4CCOCC4)nc23)c(F)c1 [Compound 355, N-[3-fluoro-4-[[6-(2-morpholin-4-ylethoxy)-1,5-naphthyridin-4-yl)oxy]phenyl]-5-(4-fluorophenyl)-4-hydroxy-2,6-dimethylpyridine-3-carboxamide]
10 | > 300 nM | 100 to 300 nM | < 100 nM | COc1ccc2nccc(Oc3ccc(NC(=O)c4cn(C)c(C)c(-c5ccc(F)cc5)c4=O)cc3)c2n1 [Compound 356, 5-(4-fluorophenyl)-N-[4-[(6-methoxy-1,5-naphthyridin-4-yl)oxy]phenyl]-1,6-dimethyl-4-oxopyridine-3-carboxamide]
11 | < 100 nM | < 100 nM | < 100 nM | COc1cc2nccc(Oc3ccc(NC(=O)c4nn(C(C)C)c(C)c(-c5ccc(F)cc5)c4=O)cc3F)c2nc1OC [Compound 364, N-[4-[(6,7-dimethoxy-1,5-naphthyridin-4-yl)oxy]-3-fluorophenyl]-5-(4-fluorophenyl)-6-methyl-4-oxo-1-propan-2-ylpyridazine-3-carboxamide]
12 | 100 to 300 nM | 100 to 300 nM | < 100 nM | C=C(C)c1cc(C(=O)Nc2ccc(Oc3ccnc4cc(OC)c(OC)nc34)c(F)c2)c(=O)n(-c2ccc(F)cc2)c1C [Compound 367, N-[4-[(6,7-dimethoxy-1,5-naphthyridin-4-yl)oxy]-3-fluorophenyl]-1-(4-fluorophenyl)-6-methyl-2-oxo-5-prop-1-en-2-ylpyridine-3-carboxamide]
13 | < 100 nM | < 100 nM | < 100 nM | COc1cc2nccc(Oc3ccc(NC(=O)c4cc(C(C)C)c(C)n(-c5ccc(F)cc5)c4=O)cc3F)c2nc1OC [Compound 368, N-[4-[(6,7-dimethoxy-1,5-naphthyridin-4-yl)oxy]-3-fluorophenyl]-1-(4-fluorophenyl)-6-methyl-2-oxo-5-propan-2-ylpyridine-3-carboxamide]
14 | < 100 nM | > 300 nM | < 100 nM | CCOc1c(C(=O)Nc2ccc(Oc3ccnc4cc(OC)c(OC)nc34)c(F)c2)c(=O)c(-c2ccc(F)cc2)c(C)n1C [Compound 369, N-[4-[(6,7-dimethoxy-1,5-naphthyridin-4-yl)oxy]-3-fluorophenyl]-2-ethoxy-5-(4-fluorophenyl)-1,6-dimethyl-4-oxopyridine-3-carboxamide]
15 | < 100 nM | < 100 nM | < 100 nM | COc1cc2nccc(Oc3ccc(NC(=O)c4cc(C)c(C)n(-c5ccc(F)cc5)c4=O)cc3F)c2nc1OC [Compound 370, N-[4-[(6,7-dimethoxy-1,5-naphthyridin-4-yl)oxy]-3-fluorophenyl]-1-(4-fluorophenyl)-5,6-dimethyl-2-oxopyridine-3-carboxamide]
16 | < 100 nM | 100 to 300 nM | < 100 nM | Cc1ncc(C(=O)Nc2ccc(Oc3ccnc4cc(-c5cnn(C(F)F)c5)ccc34)cc2)c(O)c1-c1ccc(F)cc1 [Compound 377, N-[4-[7-[1-(difluoromethyl)pyrazol-4-yl]quinolin-4-yl]oxyphenyl]-5-(4-fluorophenyl)-4-hydroxy-6-methylpyridine-3-carboxamide]
17 | > 300 nM | < 100 nM | < 100 nM | COc1ccc2nccc(Oc3ccc(NC(=O)c4ncc(C)n(-c5ccc(F)cc5)c4=O)cc3)c2n1 [Compound 378, 4-(4-fluorophenyl)-N-[4-[(6-methoxy-1,5-naphthyridin-4-yl)oxy]phenyl]-5-methyl-3-oxopyrazine-2-carboxamide]
18 | < 100 nM | < 100 nM | < 100 nM | COc1cc2nccc(Oc3ccc(NC(=O)c4nccn(-c5ccc(F)cc5)c4=O)cc3F)c2nc1OC [Compound 379, N-[4-[(6,7-dimethoxy-1,5-naphthyridin-4-yl)oxy]-3-fluorophenyl]-4-(4-fluorophenyl)-3-oxopyrazine-2-carboxamide]
19 | > 300 nM | < 100 nM | < 100 nM | COc1ccc2nccc(Oc3ccc(NC(=O)c4nccn(-c5ccc(F)cc5)c4=O)cc3F)c2n1 [Compound 380, N-[3-fluoro-4-[(6-methoxy-1,5-naphthyridin-4-yl)oxy]phenyl]-4-(4-fluorophenyl)-3-oxopyrazine-2-carboxamide]
20 | > 300 nM | < 100 nM | < 100 nM | COc1cnc2c(Oc3ccc(NC(=O)c4nccn(-c5ccc(F)cc5)c4=O)cc3F)ccnc2c1 [Compound 381, N-[3-fluoro-4-[(7-methoxy-1,5-naphthyridin-4-yl)oxy]phenyl]-4-(4-fluorophenyl)-3-oxopyrazine-2-carboxamide]
21 | > 300 nM | < 100 nM | < 100 nM | COc1cnc2c(Oc3ccc(NC(=O)c4nccn(-c5ccc(F)cc5)c4=O)cc3)ccnc2c1 [Compound 382, 4-(4-fluorophenyl)-N-[4-[(7-methoxy-1,5-naphthyridin-4-yl)oxy]phenyl]-3-oxopyrazine-2-carboxamide]
22 | > 300 nM | < 100 nM | < 100 nM | COc1ccc2nccc(Oc3ccc(NC(=O)c4nccn(-c5ccc(F)cc5)c4=O)cc3)c2n1 [Compound 383, 4-(4-fluorophenyl)-N-[4-[(6-methoxy-1,5-naphthyridin-4-yl)oxy]phenyl]-3-oxopyrazine-2-carboxamide]
23 | < 100 nM | < 100 nM | < 100 nM | COc1cc2nccc(Oc3ccc(NC(=O)c4nccn(-c5ccc(F)cc5)c4=O)cc3)c2nc1OC [Compound 384, N-[4-[(6,7-dimethoxy-1,5-naphthyridin-4-yl)oxy]phenyl]-4-(4-fluorophenyl)-3-oxopyrazine-2-carboxamide]
24 | < 100 nM | < 100 nM | < 100 nM | COc1cc2nccc(Oc3ccc(NC(=O)c4ccnn(-c5ccc(F)cc5)c4=O)cc3F)c2nc1OC [Compound 386, N-[4-[(6,7-dimethoxy-1,5-naphthyridin-4-yl)oxy]-3-fluorophenyl]-2-(4-fluorophenyl)-3-oxopyridazine-4-carboxamide]
